Reference: patent publication US20200079819A1, “Use of a Vaccine Targeting a Cryptic Tert Epitope, for Treating Lung Cancer in a HLA-A*0201-Positive Never-Smoker or Light-Former Smoker Patient” (Vaxon Biotech, priority 2017, published 2020)
No end group written: not given here.

Tested on: HLA-A*0201 positive patients with NSCLC expressing TERT
Assay: Vx-001-201 randomized double blind phase IIb clinical trial (OS, TTF, 12 months survival)
Assay type: in vivo, human
Conditions: for OS (months) / 12 months OS / 12 months OS (%) / Median TTF (months) / Median survival (months): Vx-001 arm; for HR (OS) / HR (TTF): Vx-001 vs placebo
From the text: The Vx-001-201 study is a randomized, double blind multicenter study done in 70 centers in France, Germany, Spain, Italy, Greece, Poland, Romania and Czech Republic. Key eligibility criteria were a) non small cell lung cancer (NSCLC), b) stage IV or recurrent stage I-III, c) disease control after platinum based first line chemotherapy according to RECIST 1.1 criteria, d) HLA-A*0201 positivity, e) tumors expressing TElomerase Reverse Transcriptase (TERT), f) ECOG 0 or 1 g) absence of brain metastasis.
a) Principal endpoint: overall survival (OS) measured from randomization
b) Secondary endpoints: • Time to Treatment Failure (TTF) measured from randomization • OS at 12 months
Patients who fulfilled all inclusion criteria were randomized within 4 weeks after the end of first line chemotherapy.
The vaccination protocol consisted in six vaccinations at three weeks interval. The optimized Vx-001/TERT572Y was used in the first two vaccinations and the native Vx-001/TERT572 in the following four vaccinations. Patients who continued controlling their disease after the sixth vaccination received boost vaccination with the Vx-001/TERT572 every three months. Vaccination was stopped at disease progression (FIG. 1).
The primary and secondary endpoints were analysed in the Full Analysis Set composed of all patients who fulfilled the […] five main criteria a) NSCLC, b) stage IV or recurrent stage I-III, and c) disease control after first line chemotherapy, d) HLA-A*0201 positivity and e) TERT expressing tumors.
We used the Kaplan-Meier method to estimate OS and TTF in each arm and a Cox proportional hazards regression model to estimate Hazard Ratio (HR) relating OS and TTF to the treatment effect.

[1] = never-smokers and light-smokers (≤25 years, stopped or not), SQ (n = 14)
[2] = never-smokers and light-smokers (≤25 years, stopped or not), Stage IV (n = 51)
[3] = never-smokers and light-smokers (≤25 years, stopped or not), natural immunity No (n = 37)
[4] = never-smokers and light-smokers (≤25 years, stopped or not), natural immunity Yes (n = 15)
[5] = never-smokers and light-smokers (≤25 years, stopped or not), response to treatment OS (n = 28)
[6] = never-smokers and light-smokers (≤25 years, stopped or not), response to treatment SD (n = 32)
[7] = never-smokers or former light-smokers (≤25 years), <65 years (n = 24)
[8] = never-smokers or former light-smokers (≤25 years), >65 years (n = 31)
[9] = never-smokers or former light-smokers (≤25 years), CARBO (n = 37)
[10] = never-smokers or former light-smokers (≤25 years), CDDP (n = 18)
[11] = never-smokers or former light-smokers (≤25 years), Female (n = 23)
[12] = never-smokers or former light-smokers (≤25 years), MH + NSQ (n = 42)
[13] = never-smokers or former light-smokers (≤25 years), Male (n = 32)
[14] = never-smokers or former light-smokers (≤25 years), SQ (n = 13)
[15] = never-smokers or former light-smokers (≤25 years), natural immunity No (n = 33)
[16] = never-smokers or former light-smokers (≤25 years), natural immunity Yes (n = 14)
[17] = never-smokers or former light-smokers (≤25 years), response to chemotherapy OR (n = 26)
[18] = never-smokers or former light-smokers (≤25 years), response to chemotherapy SD (n = 29)
[19] = never-smokers or former light-smokers (≤25 years), stable disease SD after first-line chemotherapy (n = 29)

Vx-001: vaccine composed of two nine-amino-acid peptides, TERT572 (SEQ ID No: 1) and TERT572Y (SEQ ID No: 2), administered separately with adjuvant Montanide ISA51 VG (chain 1 RLFFYRKSV; chain 2 YLFFYRKSV; not fully specified)
OS (months) [1]: 14.1 months | HR (OS) [1]: 0.81 | 12 months OS [2]: 69.2% | OS (months) [2]: 16.2 months | HR (OS) [2]: 0.44 | 12 months OS [3]: 83.0% | OS (months) [3]: 20.7 months | HR (OS) [3]: 0.27 | 12 months OS [4]: 66.0% | OS (months) [4]: 15.3 months | HR (OS) [4]: 0.87 | 12 months OS [5]: 63.6% | OS (months) [5]: 15.3 months | HR (OS) [5]: 0.91 | 12 months OS [6]: 75.0% | OS (months) [6]: 24.7 months | HR (OS) [6]: 0.34 | 12 months OS (%) [7]: 77% | Median TTF (months) [7]: 2.9 months | Median survival (months) [7]: 20.2 months | HR (OS) [7]: 0.46 | HR (TTF) [7]: 1.07 | 12 months OS (%) [8]: 69.2% | Median TTF (months) [8]: 4.6 months | Median survival (months) [8]: 15.3 months | HR (OS) [8]: 0.64 | HR (TTF) [8]: 0.71 | 12 months OS (%) [9]: 64.7% | Median TTF (months) [9]: 2.9 months | Median survival (months) [9]: 15.3 months | HR (OS) [9]: 0.63 | HR (TTF) [9]: 0.90 | 12 months OS (%) [10]: 88.8% | Median TTF (months) [10]: 5.6 months | Median survival (months) [10]: 24.7 months | HR (OS) [10]: 0.50 | HR (TTF) [10]: 0.87 | 12 months OS (%) [11]: 66.6% | Median TTF (months) [11]: 4.2 months | Median survival (months) [11]: 13.3 months | HR (OS) [11]: 0.89 | HR (TTF) [11]: 0.98 | 12 months OS (%) [12]: 73.7% | Median TTF (months) [12]: 4.2 months | Median survival (months) [12]: 16.2 months | HR (OS) [12]: 0.53 | HR (TTF) [12]: 0.89 | 12 months OS (%) [13]: 78.6% | Median TTF (months) [13]: 2.9 months | Median survival (months) [13]: 24.7 months | HR (TTF) [13]: 0.82 | 12 months OS (%) [14]: 71.4% | Median TTF (months) [14]: 2.9 months | Median survival (months) [14]: 14.1 months | HR (OS) [14]: 0.89 | HR (TTF) [14]: 0.81 | 12 months OS (%) [15]: 82.3% | Median TTF (months) [15]: 5.6 months | Median survival (months) [15]: 20.7 months | HR (TTF) [15]: 0.43 | 12 months OS (%) [16]: 66.6% | Median TTF (months) [16]: 2.4 months | Median survival (months) [16]: 15.3 months | HR (OS) [16]: 0.90 | HR (TTF) [16]: 1.86 | 12 months OS (%) [17]: 72.7% | Median TTF (months) [17]: 2.8 months | Median survival (months) [17]: 15.3 months | HR (OS) [17]: 0.96 | HR (TTF) [17]: 1.33 | Median TTF (months) [18]: 3.6 months | HR (TTF) [18]: 0.58 | 12 months OS (%) [19]: 73.3% | Median survival (months) [19]: 24.7 months | Effect on OS (in words) (never/light-smokers (≤25 years, stopped or not), Table 7 population): significantly prolonged OS
